Assays:
[1] = Encapsulation efficiency (RiboGreen), particle size and PDI (Zetasizer Nano ZS) of LNPs; format: physicochemical; conditions: PEG-less mRNA-LNP, unmodified method, 27.4/50/22.6 (FIG. 6)
Description: Encapsulation efficiency was calculated by determining unencapsulated mRNA content by measuring the fluorescence upon the addition of RiboGreen™ to the mRNA-LNP (Fi) and comparing this value to the total mRNA content that is obtained upon lysis of the LNP by 2% Triton X-100 (Ft): % encapsulation=(Ft−Fi)/Ft×100.
The particle size and polydispersity index (PDI) were characterized using a Zetasizer Nano ZS™.

[2] = LNP formulability and stability through dialysis, concentration and storage; format: physicochemical; conditions: for physiochemical characteristics, modified method with 25 mM sodium acetate dilution: 1:2-1:3 volume ratio; for behaviour after dialysis and concentration/storage: PEG-less mRNA-LNP, unmodified method, 27.4/50/22.6; for physiochemical properties/stability, modified method with 1× PBS dilution after T-mixing: all ratios of LNP:PBS tested, after dialysis and after concentration to >0.25 mg/mL and overnight storage; for ability to be formulated in PEG-less mRNA-LNPs: unmodified ethanol mixing method, ionizable lipid/DSPC/chol 27.4/50/22.6, N/P 9 (FIG. 6); for viability of LNPs, modified method with 25 mM sodium acetate dilution: all ratios of LNP:NaOAc (v:v); for behaviour in dialysis: PEG-less mRNA-LNP 1/structural lipid/cholesterol 27.4/50/22.6, unmodified method
Description: Unless otherwise specified, the LNPs were prepared by dissolving mRNA or plasmid DNA (pDNA) in 25 mM sodium acetate, pH 4.0, while the lipid components at the mole % specified were dissolved in absolute ethanol. The lipids in ethanol and the nucleic acid cargo in buffer were combined in a 1:3 volume by volume ratio using a t-junction with dual-syringe pump. The solutions were pushed through the t-junction at a combined flow rate of 20 mL/min (5 mL/minute for the lipid-containing syringe, 15 mL/minute for the mRNA-containing syringe). The mixture was subsequently dialyzed overnight against at least ˜100 volumes of 1× phosphate buffered saline (PBS), pH 7.4 using Spectro/Por™ dialysis membranes (molecular weight cut-off 12 000-14 000 Da). The LNPs were concentrated as required with an Amicon Ultra™ 100 000 MWCO (molecular weight cut-off), regenerated cellulose concentrator.
After T-mixing, 1× phosphate buffered saline (PBS) or other buffer as indicated, was added to the formulation mixture in increasing ratios of LNP: 1× buffer prior to dialysis and gently mixed, followed by transfer to dialysis in 1×PBS (or other suitable buffer as indicated) followed by processing as usual.
After the T-mixing (see Materials and Methods above), 1× phosphate buffered saline (PBS) was added to the formulation mixture in increasing volume ratios of LNP: 1× PBS (as indicated in FIGS. 7A-F) prior to dialysis followed by gentle mixing and transfer of the mixture to a dialysis bag in 1×PBS overnight followed by processing as usual. […] Physiochemical characteristics (particle size, PDI and encapsulation %) were measured after dialysis and after dialysis and concentration of the LNPs to >0.25 mg/mL and overnight storage.

[3] = buffer-to-LNP ratio as low as 1:1 (v:v)
[4] = dilution ratios below 1:1 (v:v)

| PDI [1] | encapsulation efficiency [1] | SMILES | behaviour after dialysis and concentration/storage [2] | ability to be formulated in PEG-less mRNA-LNPs [2] | also measured |
| --- | --- | --- | --- | --- | --- |
| high | low | CCCCCCCC(=O)OC(CCCCCC)CSCCCCCC(CCCCCSCC(CCCCCC)OC(=O)CCCCCCC)N(C)CCCCO (stereo not drawn) [Ionizable lipid 15] | agglomerate after dialysis or were not stable after concentration/storage | undesirable physiochemical characteristics | physiochemical characteristics, modified method with 25 mM sodium acetate dilution [2]: ideal physiochemical characteristics; physiochemical properties/stability, modified method with 1× PBS dilution after T-mixing [2]: agglomerated in dialysis; stability, modified method with 25 mM sodium acetate dilution [2, 3]: stable PEG-less lcLNP compositions; stability, modified method with 25 mM sodium acetate dilution [2, 4]: agglomerated in dialysis |
| high | low | CCCCCCCCC(CCCCCC)C(=O)OCCCCCC(CCCCCSCC(CCCCCC)OC(=O)CCC1CCCCC1)N(C)CCCCO (stereo not drawn) [Ionizable lipid 17] | agglomerate after dialysis or were not stable after concentration/storage | undesirable physiochemical characteristics | – |
| high | low | CCCCCCC(CSCCCCCC(CCCCCSCC(CCCCCC)OC(=O)CCC1CCCCC1)N(C)CCCCO)OC(=O)CCC1CCCCC1 (stereo not drawn) [Ionizable lipid 16] | agglomerate after dialysis or were not stable after concentration/storage | undesirable physiochemical characteristics | stability, modified method with 1× PBS dilution ([2]; 1:2 (v:v) dilution): stable particles which did not agglomerate in dialysis; physiochemical characteristics, modified method with 25 mM sodium acetate dilution [2]: ideal physiochemical characteristics; stability, modified method with 25 mM sodium acetate dilution [2, 3]: stable PEG-less lcLNP compositions; stability, modified method with 25 mM sodium acetate dilution [2, 4]: agglomerated in dialysis |

Second part, the molecule before the results:

| SMILES | PDI [1] | encapsulation efficiency [1] | behaviour after dialysis and concentration/storage [2] | ability to be formulated in PEG-less mRNA-LNPs [2] | also measured |
| --- | --- | --- | --- | --- | --- |
| CCCCCCCCCCCCCCCCCC(=O)OC[C@H](COP(=O)([O-])OCC[N+](C)(C)C)OC(=O)CCCCCCCCCCCCCCCCC [DSPC, distearoylphosphatidylcholine] | – | – | – | – | change in physiochemical characteristics after concentration and refrigerated storage ([2]; PEG-less mRNA-LNP 1/structural lipid/cholesterol 27.4/50/22.6, unmodified method (FIGS. 12A, 12B)): no change |
| CCCCCCCCCC(=O)OC(CCCCC1(CCCCC(CSC2CCCCC2)OC(=O)CCCCCCCCC)OCC(CCN(C)C)O1)CSC1CCCCC1 (stereo not drawn) [Ionizable lipid 12] | high | low | agglomerate after dialysis or were not stable after concentration/storage | undesirable physiochemical characteristics | viability of LNPs, modified method with 25 mM sodium acetate dilution [2]: viable PEG-less LNPs; stability, modified method with 1× PBS dilution ([2]; less than 1× volume of 1×PBS (1:0.25, 1:0.5, undiluted)): agglomerated upon dialysis; stability, modified method with 1× PBS dilution ([2]; ratios of at least 1:1 (v:v) addition of 1×PBS): stable after concentration and overnight storage |
| CCCCCCCCCCCOC(=O)CCCCCN(CCO)CCCCCCCC(=O)OC(CCCCCCCC)CCCCCCCC [Ionizable lipid 21] | – | – | – | capable of being formulated | – |
| CCCCCCCCC(=O)OC(CCCCCC(CCCCCC(CSC1CCCCC1)OC(=O)CCCCCCCC)OC(=O)CCCN(C)C)CSC1CCCCC1 (stereo not drawn) [Ionizable lipid 1] | – | – | – | capable of being formulated | viability of LNPs, modified method with 25 mM sodium acetate dilution [2]: viable LNPs; physiochemical properties/stability, modified method with 1× PBS dilution after T-mixing [2]: acceptable physiochemical properties |
| CCCCCCCCCCCCCC(=O)OC[C@H](COP(=O)([O-])OCC[N+](C)(C)C)OC(=O)CCCCCCCCCCCCC [DMPC, dimyristoylphosphatidylcholine] | – | – | – | – | physiochemical characteristics after concentration/storage ([2]; 12/DMPC/cholesterol 27.4/50/22.6, unmodified method (FIG. 13)): deteriorated after concentration/storage; physiochemical characteristics / behaviour upon dialysis ([2]; PEG-less LNP with 12 as ionizable lipid, helper lipid screen, unmodified method (FIG. 13)): less ideal physiochemical characteristics |
| CCCCCCCC/C=C\CCCCCCCC(=O)OC[C@H](COP(=O)(O)OCCN)OC(=O)CCCCCCC/C=C\CCCCCCCC [DOPE, dioleoylphosphatidylethanolamine] | – | – | – | – | behaviour in dialysis [2]: agglomerated in dialysis |
| CCCCCCCC/C=C\CCCCCCCC(=O)OC[C@H](COP(=O)([O-])OCC[N+](C)(C)C)OC(=O)CCCCCCC/C=C\CCCCCCCC [DOPC, dioleoylphosphatidylcholine] | – | – | – | – | behaviour in dialysis [2]: agglomerated in dialysis |
